The source made the active and inactive calls.
Columns and labels:
[1] = biological target: DNA dC->dU-editing enzyme APOBEC-3G (Homo sapiens, UniProt Q9HC16); format: functional;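 also: Dose-response counterscreen measuring inhibition of APOBEC3G DNA deaminase activity, run while confirming APOBEC3A inhibitors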
[2] = biological target: DNA dC->dU-editing enzyme APOBEC-3A (Homo sapiens, UniProt P31941); assay: Dose Response confirmation of small molecule APOBEC3A DNA Deaminase Inhibitors via a fluorescence-based single-stranded DNA deaminase assay. [Related pubchem assays (depositor defined):AID493011, AID493024]; format: functional
Chain of DNA dC->dU-editing enzyme APOBEC-3A (P31941 whole entry): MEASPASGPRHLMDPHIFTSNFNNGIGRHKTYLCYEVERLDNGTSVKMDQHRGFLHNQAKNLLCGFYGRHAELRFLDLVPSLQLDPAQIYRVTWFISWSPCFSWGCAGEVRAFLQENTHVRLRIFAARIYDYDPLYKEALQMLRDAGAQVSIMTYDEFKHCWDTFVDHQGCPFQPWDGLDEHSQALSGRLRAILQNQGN

[3] = biological target: Heat shock protein HSP 90-alpha (Homo sapiens, UniProt P07900); format: functional, organism-based
[4] = biological target: T1, Acyl-homoserine lactone acylase PvdQ (Pseudomonas aeruginosa (strain LESB58), UniProt Q9I194); assay: P. aeruginosa PvdQ acylase inhibitors, dose response, biochemical, fluorescence, plate reader and imaging, cherry-picks (AID 493231)
T1 sequence (Q9I194 whole entry): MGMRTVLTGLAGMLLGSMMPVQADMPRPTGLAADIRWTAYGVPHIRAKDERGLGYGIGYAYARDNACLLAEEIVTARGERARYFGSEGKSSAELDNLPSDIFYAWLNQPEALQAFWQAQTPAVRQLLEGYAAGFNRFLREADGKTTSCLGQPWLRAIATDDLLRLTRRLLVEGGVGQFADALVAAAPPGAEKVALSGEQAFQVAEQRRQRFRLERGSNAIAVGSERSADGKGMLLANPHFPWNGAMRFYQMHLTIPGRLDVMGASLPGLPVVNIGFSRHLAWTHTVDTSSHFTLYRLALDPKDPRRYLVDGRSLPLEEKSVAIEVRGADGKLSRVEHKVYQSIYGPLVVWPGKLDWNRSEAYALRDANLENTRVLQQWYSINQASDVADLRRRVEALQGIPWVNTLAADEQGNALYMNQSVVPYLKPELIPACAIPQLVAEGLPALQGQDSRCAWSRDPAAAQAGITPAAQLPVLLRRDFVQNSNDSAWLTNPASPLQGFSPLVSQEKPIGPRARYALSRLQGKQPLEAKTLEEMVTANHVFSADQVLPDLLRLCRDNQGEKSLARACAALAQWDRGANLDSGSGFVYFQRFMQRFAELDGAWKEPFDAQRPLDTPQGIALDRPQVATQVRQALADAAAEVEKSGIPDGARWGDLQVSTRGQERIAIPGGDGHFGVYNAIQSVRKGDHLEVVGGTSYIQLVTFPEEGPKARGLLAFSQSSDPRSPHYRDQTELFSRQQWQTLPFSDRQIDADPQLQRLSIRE

[5] = biological target: Cytochrome P450 2D6 (Homo sapiens, UniProt P10635)
Chain of Cytochrome P450 2D6 (P10635 whole entry): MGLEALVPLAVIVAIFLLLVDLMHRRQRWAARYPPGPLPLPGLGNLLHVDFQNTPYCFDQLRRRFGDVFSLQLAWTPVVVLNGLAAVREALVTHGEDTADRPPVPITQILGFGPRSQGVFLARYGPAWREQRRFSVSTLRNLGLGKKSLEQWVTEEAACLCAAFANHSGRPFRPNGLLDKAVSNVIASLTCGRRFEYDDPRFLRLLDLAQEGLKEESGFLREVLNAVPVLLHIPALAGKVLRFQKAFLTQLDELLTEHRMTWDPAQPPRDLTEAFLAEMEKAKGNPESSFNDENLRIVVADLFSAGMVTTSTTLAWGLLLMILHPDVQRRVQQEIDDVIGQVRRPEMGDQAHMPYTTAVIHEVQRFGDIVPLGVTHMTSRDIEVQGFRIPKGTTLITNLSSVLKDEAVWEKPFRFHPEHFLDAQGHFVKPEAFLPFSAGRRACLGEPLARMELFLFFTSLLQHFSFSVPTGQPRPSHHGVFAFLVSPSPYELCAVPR

[6] = biological target: Cytochrome P450 2C19 (Homo sapiens, UniProt P33261); assay: Cytochrome panel assay with activity outcomes. Panel member name: p450-cyp2c19 Compounds with AC50 equal or less than 10 uM are considered active; format: functional; settings: read-out: AC50
Chain of Cytochrome P450 2C19 (P33261 whole entry): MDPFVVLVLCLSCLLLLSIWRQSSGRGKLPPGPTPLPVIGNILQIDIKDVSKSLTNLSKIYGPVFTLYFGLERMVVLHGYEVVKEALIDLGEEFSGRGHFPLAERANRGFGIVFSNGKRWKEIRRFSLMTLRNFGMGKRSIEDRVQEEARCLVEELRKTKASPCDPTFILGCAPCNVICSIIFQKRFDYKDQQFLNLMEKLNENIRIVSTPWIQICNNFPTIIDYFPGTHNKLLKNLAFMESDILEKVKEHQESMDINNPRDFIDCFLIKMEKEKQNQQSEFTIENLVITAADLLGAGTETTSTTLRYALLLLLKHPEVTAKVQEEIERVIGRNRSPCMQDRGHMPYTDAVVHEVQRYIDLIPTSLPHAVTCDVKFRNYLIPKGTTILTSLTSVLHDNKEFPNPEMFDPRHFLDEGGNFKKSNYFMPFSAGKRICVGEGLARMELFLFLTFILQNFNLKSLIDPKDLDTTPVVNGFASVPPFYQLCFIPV

[7] = biological target: Cytochrome P450 3A4 (Homo sapiens, UniProt P08684);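 also: CYP3A4 tested as one member of a cytochrome P450 panel screen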
Chain of Cytochrome P450 3A4 (P08684 whole entry): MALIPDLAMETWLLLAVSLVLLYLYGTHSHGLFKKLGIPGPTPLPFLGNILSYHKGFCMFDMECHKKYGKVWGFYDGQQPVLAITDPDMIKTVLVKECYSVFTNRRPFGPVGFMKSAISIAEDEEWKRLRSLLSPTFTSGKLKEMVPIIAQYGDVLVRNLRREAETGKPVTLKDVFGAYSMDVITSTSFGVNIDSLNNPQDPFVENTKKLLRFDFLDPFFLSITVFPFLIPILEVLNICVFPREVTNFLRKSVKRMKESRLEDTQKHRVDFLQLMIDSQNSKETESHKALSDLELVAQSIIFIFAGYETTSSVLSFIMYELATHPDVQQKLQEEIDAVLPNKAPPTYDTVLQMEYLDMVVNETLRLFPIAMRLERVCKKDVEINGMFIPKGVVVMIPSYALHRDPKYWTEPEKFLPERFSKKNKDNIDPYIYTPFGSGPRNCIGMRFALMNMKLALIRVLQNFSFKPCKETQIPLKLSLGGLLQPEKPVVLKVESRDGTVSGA

[8] = biological target: 5-hydroxytryptamine receptor 5A (Homo sapiens, UniProt P47898); assay: Counterscreen for agonists of OPRM1-OPRD1 heterodimerization: luminescence-based cell-based high throughput dose response assay to identify agonists of 5-hydroxytryptamine (serotonin) 5A receptor (HTR5A). [Related pubchem assays (depositor defined):AID504326, AID504355, AID504692, AID504904, AID504905]; format: functional
Chain of 5-hydroxytryptamine receptor 5A (P47898 whole entry): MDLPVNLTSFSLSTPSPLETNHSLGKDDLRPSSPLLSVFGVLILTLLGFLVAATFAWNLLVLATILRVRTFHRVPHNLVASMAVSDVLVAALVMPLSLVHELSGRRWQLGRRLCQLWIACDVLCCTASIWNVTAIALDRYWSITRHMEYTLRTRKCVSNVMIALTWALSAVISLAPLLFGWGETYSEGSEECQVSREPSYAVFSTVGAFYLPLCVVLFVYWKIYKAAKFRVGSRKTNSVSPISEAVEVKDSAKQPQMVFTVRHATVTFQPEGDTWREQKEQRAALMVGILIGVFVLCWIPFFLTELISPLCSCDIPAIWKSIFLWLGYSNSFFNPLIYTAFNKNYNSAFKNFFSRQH

[9] = biological target: Mu-type opioid receptor (Homo sapiens, UniProt P35372); assay: (§1) Counterscreen for agonists of heterodimerization of the mu 1 (OPRM1) and delta 1 (OPRD1) opioid receptors: Luminescence-based cell-based high throughput dose response assay to identify agonists of OPRM1 homodimerization.; format: functional
Chain of Mu-type opioid receptor (P35372 whole entry): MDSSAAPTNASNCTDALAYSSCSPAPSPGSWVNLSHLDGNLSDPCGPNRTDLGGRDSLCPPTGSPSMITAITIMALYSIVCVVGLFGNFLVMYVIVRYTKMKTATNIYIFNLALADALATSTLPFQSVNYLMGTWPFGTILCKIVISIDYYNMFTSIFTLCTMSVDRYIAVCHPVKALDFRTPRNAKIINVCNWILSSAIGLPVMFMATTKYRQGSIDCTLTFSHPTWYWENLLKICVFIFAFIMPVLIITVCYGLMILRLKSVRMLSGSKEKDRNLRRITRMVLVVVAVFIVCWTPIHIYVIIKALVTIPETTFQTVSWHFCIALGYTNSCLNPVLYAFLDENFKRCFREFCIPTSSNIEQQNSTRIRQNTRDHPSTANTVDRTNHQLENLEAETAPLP

[10] = biological target: Delta-type opioid receptor (Homo sapiens, UniProt P41143); assay: as §1, with “of OPRD1” for “of OPRM1”, “homodimerization. [Related pubchem assays (depositor defined):AID504326, AID504355, AID504692, AID504904, AID504905]” for “homodimerization.”; format: functional
Chain of Delta-type opioid receptor (P41143 whole entry): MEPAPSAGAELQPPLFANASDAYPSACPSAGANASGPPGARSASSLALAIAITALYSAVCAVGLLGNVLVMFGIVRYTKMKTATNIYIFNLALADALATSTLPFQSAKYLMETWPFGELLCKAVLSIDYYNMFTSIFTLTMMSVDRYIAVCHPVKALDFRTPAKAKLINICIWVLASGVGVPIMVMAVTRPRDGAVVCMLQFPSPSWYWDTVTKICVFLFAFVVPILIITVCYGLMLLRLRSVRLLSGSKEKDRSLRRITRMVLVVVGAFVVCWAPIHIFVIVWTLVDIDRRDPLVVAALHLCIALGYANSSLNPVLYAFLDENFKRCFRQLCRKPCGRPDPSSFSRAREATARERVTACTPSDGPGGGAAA

[11] = biological target: T2, Short transient receptor potential channel 4 (Mus musculus, UniProt Q9QUQ5); assay: mouse TRPC4 channel activators, dose response, cell-based, HEK293 TRPC4/mu-opioid, Fluo-4 calcium (AID 434937); format: functional
T2 sequence (Q9QUQ5 whole entry): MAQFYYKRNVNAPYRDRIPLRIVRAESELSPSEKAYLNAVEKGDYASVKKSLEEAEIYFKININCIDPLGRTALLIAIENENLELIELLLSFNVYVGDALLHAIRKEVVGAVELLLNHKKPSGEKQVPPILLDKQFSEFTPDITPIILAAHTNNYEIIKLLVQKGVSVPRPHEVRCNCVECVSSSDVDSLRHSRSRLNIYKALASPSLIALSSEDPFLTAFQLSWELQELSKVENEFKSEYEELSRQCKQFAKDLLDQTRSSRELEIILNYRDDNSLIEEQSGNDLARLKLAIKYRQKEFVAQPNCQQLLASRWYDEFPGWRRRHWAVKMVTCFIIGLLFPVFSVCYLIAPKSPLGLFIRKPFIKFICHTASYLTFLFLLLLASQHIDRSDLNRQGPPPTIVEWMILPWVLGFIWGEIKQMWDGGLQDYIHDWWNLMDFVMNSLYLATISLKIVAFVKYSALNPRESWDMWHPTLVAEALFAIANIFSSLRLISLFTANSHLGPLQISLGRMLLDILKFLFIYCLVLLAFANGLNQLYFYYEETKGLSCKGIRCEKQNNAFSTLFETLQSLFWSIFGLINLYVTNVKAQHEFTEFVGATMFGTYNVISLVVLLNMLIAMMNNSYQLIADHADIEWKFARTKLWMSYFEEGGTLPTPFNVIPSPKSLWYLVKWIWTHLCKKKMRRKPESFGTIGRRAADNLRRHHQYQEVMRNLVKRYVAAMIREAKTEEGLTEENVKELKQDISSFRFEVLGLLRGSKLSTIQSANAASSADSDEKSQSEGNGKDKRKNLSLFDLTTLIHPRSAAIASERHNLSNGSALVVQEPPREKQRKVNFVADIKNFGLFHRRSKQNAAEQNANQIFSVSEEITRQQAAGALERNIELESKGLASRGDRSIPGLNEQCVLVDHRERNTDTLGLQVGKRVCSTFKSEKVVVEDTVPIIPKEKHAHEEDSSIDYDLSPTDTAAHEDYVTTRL

[12] = cells; format: functional
[13] = THP-1 cell cytotoxicity, dose response, cytotoxicity control for non-replicating M. tuberculosis project (AID 489025); format: functional
[14] = biological target: T3, Cytochrome P450 1A2 (Homo sapiens, UniProt P05177);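 also: PubChem cytochrome P450 panel assay, CYP1A2 panel member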
T3 sequence (P05177 whole entry): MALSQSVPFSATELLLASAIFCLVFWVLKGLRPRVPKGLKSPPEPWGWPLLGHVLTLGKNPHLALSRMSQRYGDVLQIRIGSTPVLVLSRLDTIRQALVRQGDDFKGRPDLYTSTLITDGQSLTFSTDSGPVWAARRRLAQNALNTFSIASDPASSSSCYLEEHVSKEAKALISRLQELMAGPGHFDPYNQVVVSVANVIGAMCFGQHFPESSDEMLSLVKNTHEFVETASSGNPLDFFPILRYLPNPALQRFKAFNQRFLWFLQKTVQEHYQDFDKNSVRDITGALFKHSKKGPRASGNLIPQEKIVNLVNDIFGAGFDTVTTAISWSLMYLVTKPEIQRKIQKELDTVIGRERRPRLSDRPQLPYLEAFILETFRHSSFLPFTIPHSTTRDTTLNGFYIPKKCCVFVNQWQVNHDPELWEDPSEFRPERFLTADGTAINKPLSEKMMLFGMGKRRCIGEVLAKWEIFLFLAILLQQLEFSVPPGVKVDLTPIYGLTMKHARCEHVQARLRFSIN

[15] = biological target: Cytochrome P450 2C9 (Homo sapiens, UniProt P11712)
Chain of Cytochrome P450 2C9 (P11712 whole entry): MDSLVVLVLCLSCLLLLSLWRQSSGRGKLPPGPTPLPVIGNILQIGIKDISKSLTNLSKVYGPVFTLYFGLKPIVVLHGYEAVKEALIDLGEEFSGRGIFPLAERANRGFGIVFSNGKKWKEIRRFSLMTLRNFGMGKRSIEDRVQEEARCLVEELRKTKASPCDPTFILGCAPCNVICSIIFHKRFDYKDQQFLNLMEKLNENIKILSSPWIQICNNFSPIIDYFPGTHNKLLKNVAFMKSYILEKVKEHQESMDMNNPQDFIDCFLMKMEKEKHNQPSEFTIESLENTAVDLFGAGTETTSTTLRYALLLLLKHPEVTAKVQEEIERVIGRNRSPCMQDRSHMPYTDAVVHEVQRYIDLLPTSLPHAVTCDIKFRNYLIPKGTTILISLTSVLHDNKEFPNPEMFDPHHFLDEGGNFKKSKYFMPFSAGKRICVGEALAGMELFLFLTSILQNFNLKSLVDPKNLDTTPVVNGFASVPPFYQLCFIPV

[16] = Luminescence Cell-Based Dose Response HTS to Identify Activators of Luciferase Translation or Activity in H4 […] Cells. [Related pubchem assays: 1829 (Project Summary), 1814 (Primary HTS)]; format: functional
[17] = Luminescence Cell-Based Dose Confirmation HTS to Identify Activators of 5'UTR Stem-Loop Driven Alpha-Synuclein mRNA Translation in H4 Neuroglioblastoma Cells. [Related pubchem assays: 1829 (Project Summary), 1814 (Primary HTS)]; format: functional
[18] = Luminescence Cell-Based Dose Retest to Confirm Inhibitors of Cancer Stem Cells. [Related pubchem assays (depositor defined):AID2717, AID2721]; format: functional; settings: Homo sapiens
[19] = tested on: H4; assay: Luminescence Cell-Based Dose Response HTS to Identify Activators of 5'UTR Stem-Loop Driven Prion Protein mRNA Translation in H4 Neuroglioblastoma Cells. [Related pubchem assays: 1829 (Project Summary), 1814 (Primary HTS)]; format: functional; settings: Homo sapiens

Chain of DNA dC->dU-editing enzyme APOBEC-3G (Q9HC16 whole entry): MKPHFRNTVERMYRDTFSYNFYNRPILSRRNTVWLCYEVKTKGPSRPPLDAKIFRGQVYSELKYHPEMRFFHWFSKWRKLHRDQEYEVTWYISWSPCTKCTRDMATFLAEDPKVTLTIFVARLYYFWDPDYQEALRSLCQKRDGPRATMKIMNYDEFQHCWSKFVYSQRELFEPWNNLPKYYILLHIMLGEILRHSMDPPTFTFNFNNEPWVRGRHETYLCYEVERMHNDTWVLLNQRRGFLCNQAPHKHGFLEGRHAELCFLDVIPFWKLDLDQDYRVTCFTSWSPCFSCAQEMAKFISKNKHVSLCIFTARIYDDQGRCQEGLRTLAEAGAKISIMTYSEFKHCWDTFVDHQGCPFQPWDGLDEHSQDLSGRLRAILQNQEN

Compound: Cc1ccc2c(c1)C1CN(C)CCC1N2CC(=O)N(C)c1ccccc1 (stereo unspecified)
- IC50 [1]: 9.94 µM (active)
- IC50 [2]: 5.51 µM (active)

Compound: COc1ccccc1OCCNC(=O)c1ccc(Br)cc1
- AC50 [3]: 10.8 µM (active)

Compound: CSC1=NC(=O)/C(=C/c2ccc(SC)cc2)S1
- AC50 [4]: 16.2 µM (active)

Compound: CCOC(=O)N1CCN(C(=O)c2oc3ccc(S(=O)(=O)N4CCCCC4)cc3c2C)CC1
- AC50 [5]: 20 µM (inconclusive)
- AC50 [6]: 28.2 µM (inconclusive)
- AC50 [7]: inconclusive

Compound: COc1ccccc1N=Nc1[nH]c2ccc(C)cc2c1O
- IC50 [1]: 6.6 µM (active)
- IC50 [2]: 6.59 µM (active)

Compound: CCn1cc(CNCc2cn(-c3ccccc3C)nc2-c2ccc(OC)c(F)c2)cn1
- EC50 [8]: > 92.5 µM (inactive)
- EC50 [9]: 18.9 µM (inactive)
- EC50 [10]: 34.7 µM (inactive)
- EC50 [11]: 1.33 µM (active)

Compound: O=S(=O)(c1ccccc1)N1CCC2(CC1)CN(C(c1ccccc1)c1ccccc1)C2
- AC50 [7]: inconclusive

Compound: CCN1CCN(c2ccc(S(=O)(=O)N3CCCCC3)cc2NC(=O)/C=C/c2ccc(OC(F)F)cc2)CC1
- IC50 [1]: 7.32 µM (active)
- IC50 [2]: 4.28 µM (active)

Compound: O=C(Nc1ccccc1)c1cc2ccccc2o1
- IC50 [12]: 6.22 µM (active)
- CC50 [13]: > 40 µM (active)

Compound: CN1C2CCC1/C(=C\c1ccccc1)C(=O)/C2=C\c1ccccc1
- AC50 [14]: 39.8 µM (inconclusive)
- AC50 [15]: inconclusive
- AC50 [6]: 10 µM (inconclusive)
- EC50 [16]: > 120 µM (not active)
- EC50 [17]: 6.92 µM (active)
- AC50 [18]: 4.4 µM (active)
- EC50 [19]: > 120 µM (not active)
- AC50 [7]: inconclusive

Compound: CCOC(=O)C1(CCCc2ccccc2)CCN(Cc2cnn(C)c2)CC1
- EC50 [8]: > 92.5 µM (inactive)
- EC50 [9]: 43 µM (inactive)
- EC50 [10]: > 92.5 µM (inactive)
- EC50 [11]: 0.596 µM (active)

Compound: O=C(NC1CCCC1)c1cc(Cl)ccc1[N+](=O)[O-]
- AC50 [4]: 0.948 µM (active)

Compound: N#CC1C(C#N)C2CCC1C1C2N1c1ccccc1 (stereo unspecified)
- AC50 [4]: 7.8 µM (active)

Compound: OCCNC1=NCCN1
- IC50 [1]: 1.95 µM (active)
- IC50 [2]: 2.2 µM (active)

Compound: N=C(N)SCCc1ccc(CCSC(=N)N)cc1
- AC50 [5]: 31.6 µM (inconclusive)
- AC50 [7]: inconclusive
